Patent US10294202B2, “Pyrrolidinones as herbicides” (FMC Corporation, priority 2013, dated 2019)

What was measured:
nutsedge, yellow = experiment: Test C pre-/postemergence herbicide test; assay type: in vivo, Cyperus esculentus
Summary of the method: (§1)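 Visual rating, 0 (no effect) to 100 (complete control), versus untreated controls after 13 to 15 days in the greenhouse. Pre: seeds in loam/sand, sprayed at planting. Post: 1- to 4-leaf plants (2 to 18 cm) in peat-based mix. Compounds in non-phytotoxic solvent plus surfactant.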

pigweed = experiment: Test A pre-/postemergence herbicide test; assay type: in vivo, Amaranthus retroflexus
Summary of the method: (§2)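 Seeds sown in loam soil/sand blend received a preemergence directed soil spray of test chemical in non-phytotoxic solvent with surfactant; postemergence plants (2–10 cm, one- to two-leaf stage) were sprayed with the same formulation. After about 10 days in greenhouse, injury was rated visually versus untreated controls, 0 (no effect) to 100 (complete control).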

ryegrass, Italian = experiment: Test C pre-/postemergence herbicide test; assay type: in vivo, Lolium multiflorum
Summary of the method: as §1

sedge, umbrella = experiment: Test B flooded paddy test; assay type: in vivo, Cyperus difformis; details: 500 g ai/ha, Flood; scale of 0 to 100 where 0 is no effect and 100 is complete control
Summary of the method: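 2-leaf plants; flood 3 cm over soil; compound into paddy water; depth held. Greenhouse 13–15 d. Visual rating vs controls, 0 (no effect) to 100 (complete control); dash = not tested.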

blackgrass = experiment: Test C pre-/postemergence herbicide test; assay type: in vivo, Alopecurus myosuroides
Summary of the method: as §1

crabgrass, large = experiment: Test C pre-/postemergence herbicide test; assay type: in vivo, Digitaria sanguinalis
Summary of the method: as §1

ragweed = experiment: Test C pre-/postemergence herbicide test; assay type: in vivo, Ambrosia elatior
Summary of the method: as §1

johnsongrass = experiment: Test C pre-/postemergence herbicide test; assay type: in vivo, Sorghum halepense
Summary of the method: as §1

giant foxtail = experiment: Test A pre-/postemergence herbicide test; assay type: in vivo, Setaria faberii
Summary of the method: as §2

wheat = experiment: Test A pre-/postemergence herbicide test; assay type: in vivo, Triticum aestivum; details: Postemergence
Summary of the method: as §2

foxtail, giant = experiment: Test C pre-/postemergence herbicide test; assay type: in vivo, Setaria faberii
Summary of the method: as §1

[1] = Postemergence, 31 g ai/ha, scale 0 to 100 (0 no effect, 100 complete control)
[2] = Postemergence, 62 g ai/ha, scale 0 (no effect) to 100 (complete control)
[3] = Postemergence, 125 g ai/ha, scale 0 to 100 (0 no effect, 100 complete control)
[4] = Postemergence, 250 g ai/ha, scale 0 to 100 (0 no effect, 100 complete control)
[5] = Preemergence, 31 g ai/ha, scale 0 to 100, 0 is no effect and 100 is complete control
[6] = Preemergence, 62 g ai/ha, scale 0 to 100 (0 no effect, 100 complete control)
[7] = Preemergence, 125 g ai/ha, scale 0 to 100
[8] = Postemergence, 125 g ai/ha, visual rating on 0 to 100 scale (0 no effect, 100 complete control), approx. 10 days
[9] = Postemergence, 500 g ai/ha, 0 to 100 scale (0 no effect, 100 complete control)
[10] = Preemergence, 125 g ai/ha, 0 to 100 scale where 0 is no effect and 100 is complete control
[11] = Preemergence, 500 g ai/ha, visual rating on 0 to 100 scale (0 no effect, 100 complete control)

In the case of `O=C1NCC(c2cccc(OC(F)F)c2)C1C(=O)Nc1ccccc1F` (stereo not drawn) [Compound 323], the “Plant response rating, Nutsedge, Yellow” value (nutsedge, yellow; [1]) is reported as 0, the “Plant response rating, Nutsedge, Yellow” value (nutsedge, yellow; [2]) is reported as 0 and the “Plant response rating, Nutsedge, Yellow” value (nutsedge, yellow; [3]) is reported as 0. For the same compound, the “Plant response rating, Nutsedge, Yellow” value (nutsedge, yellow; [4]) was 0, the “Nutsedge, Yellow plant response rating” value (nutsedge, yellow; [5]) was 20 and the “Nutsedge, Yellow plant response rating” value (nutsedge, yellow; [6]) was 25. The “Plant response rating, Nutsedge, Yellow” value (nutsedge, yellow; [7]) was 25, the “Plant response rating (scale of 0 to 100), Nutsedge, Yellow” value (nutsedge, yellow; Preemergence, 250 g ai/ha) was 75 and the “Plant response rating, Pigweed” value (pigweed; [8]) was 20. The “Plant response rating, Pigweed” value (pigweed; [9]) was 30, the “Plant response rating, Pigweed” value (pigweed; [10]) was 20 and the “Pigweed plant response rating” value (pigweed; [11]) was 30. For the same compound, the “Plant response rating, Ryegrass, Italian” value (ryegrass, Italian; [1]) was 0, the “Plant response rating, Ryegrass, Italian” value (ryegrass, Italian; [2]) was 0 and the “Plant response rating, Ryegrass, Italian” value (ryegrass, Italian; [3]) was 0. For the same compound, the “Plant response rating, Ryegrass, Italian” value (ryegrass, Italian; [4]) was 5, the “Ryegrass, Italian plant response rating” value (ryegrass, Italian; [6]) was 10 and the “Plant response rating, Ryegrass, Italian” value (ryegrass, Italian; [7]) was 0. For the same compound, the “Plant response rating, Sedge, Umbrella” value (sedge, umbrella) was 0, the “Plant response rating, Blackgrass” value (blackgrass; [1]) was 0 and the “Plant response rating, Blackgrass” value (blackgrass; [2]) was 0. The “Plant response rating, Blackgrass” value (blackgrass; [3]) was 0, the “Plant response rating, Blackgrass” value (blackgrass; [4]) was 15 and the “Blackgrass plant response rating” value (blackgrass; [5]) was 0. For the same compound, the “Blackgrass plant response rating” value (blackgrass; [6]) was 0, the “Plant response rating, Blackgrass” value (blackgrass; [7]) was 45 and the “Plant response rating (scale of 0 to 100), Blackgrass” value (blackgrass; Preemergence, 250 g ai/ha) was 85. For the same compound, the “Plant response rating, Crabgrass, Large” value (crabgrass, large; [1]) was 0, the “Plant response rating, Crabgrass, Large” value (crabgrass, large; [2]) was 40 and the “Plant response rating, Crabgrass, Large” value (crabgrass, large; [3]) was 70. The “Plant response rating, Crabgrass, Large” value (crabgrass, large; [4]) was 80, the “Crabgrass, Large plant response rating” value (crabgrass, large; [5]) was 95 and the “Crabgrass, Large plant response rating” value (crabgrass, large; [6]) was 98. For the same compound, the “Plant response rating, Crabgrass, Large” value (crabgrass, large; [7]) was 98, the “Plant response rating (scale of 0 to 100), Crabgrass, Large” value (crabgrass, large; Preemergence, 250 g ai/ha) was 100 and the “Plant response rating, Ragweed” value (ragweed; [1]) was 0. The “Plant response rating, Ragweed” value (ragweed; [2]) was 0, the “Plant response rating, Ragweed” value (ragweed; [3]) was 15 and the “Plant response rating, Ragweed” value (ragweed; [4]) was 20. For the same compound, the “Ragweed plant response rating” value (ragweed; [6]) was 10, the “Plant response rating, Ragweed” value (ragweed; [7]) was 40 and the “Plant response rating, Johnsongrass” value (johnsongrass; [1]) was 0. For the same compound, the “Plant response rating, Johnsongrass” value (johnsongrass; [2]) was 0, the “Plant response rating, Johnsongrass” value (johnsongrass; [3]) was 0 and the “Plant response rating, Johnsongrass” value (johnsongrass; [4]) was 10. The “Johnsongrass plant response rating” value (johnsongrass; [5]) was 0, the “Johnsongrass plant response rating” value (johnsongrass; [6]) was 0 and the “Plant response rating, Johnsongrass” value (johnsongrass; [7]) was 45. The “Plant response rating (scale of 0 to 100), Johnsongrass” value (johnsongrass; Preemergence, 250 g ai/ha) was 60, the “Plant response rating, Foxtail, Giant” value (giant foxtail; [8]) was 90 and the “Plant response rating, Foxtail, Giant” value (giant foxtail; [9]) was 90. The “Plant response rating, Foxtail, Giant” value (giant foxtail; [10]) was 90, the “Foxtail, Giant plant response rating” value (giant foxtail; [11]) was 90 and the “Plant response rating, Wheat” value (wheat; 125 g ai/ha, visual rating on 0 to 100 scale (0 no effect, 100 complete control), approx. 10 days) was 40. For the same compound, the “Plant response rating, Wheat” value (wheat; 500 g ai/ha, 0 to 100 scale (0 no effect, 100 complete control)) was 80, the “Plant response rating, Foxtail, Giant” value (foxtail, giant; [1]) was 0 and the “Plant response rating, Foxtail, Giant” value (foxtail, giant; [2]) was 0. The “Plant response rating, Foxtail, Giant” value (foxtail, giant; [3]) was 35, the “Plant response rating, Foxtail, Giant” value (foxtail, giant; [4]) was 70 and the “Foxtail, Giant plant response rating” value (foxtail, giant; [5]) was 90. The “Foxtail, Giant plant response rating” value (foxtail, giant; [6]) was 95, the “Plant response rating, Foxtail, Giant” value (foxtail, giant; [7]) was 95 and the “Plant response rating (scale of 0 to 100), Foxtail, Giant” value (foxtail, giant; Preemergence, 250 g ai/ha) was 98.
